{
  "source": "paper PMC8808171",
  "about": "“Nonselective TRPC channel inhibition and suppression of aminoglycoside-induced premature termination codon readthrough by the small molecule AC1903” (The Journal of Biological Chemistry, 2022)",
  "key": {"TRPC4 channels": {"test_system": "TRPC4 channels", "parameters": "method as in PubChem AID 434942 – SID 865888", "details": "ref PubChem AID 434942 – SID 865888; cited from earlier work"}, "TRPV1:V1": {"target": "T1, TRPV1:V1 (Rattus norvegicus, UniProt O35433)", "T1 construct": "expressed in transfected cells; host or cells: WT HEK 293 (transient)", "T1 sequence (O35433 whole entry)": "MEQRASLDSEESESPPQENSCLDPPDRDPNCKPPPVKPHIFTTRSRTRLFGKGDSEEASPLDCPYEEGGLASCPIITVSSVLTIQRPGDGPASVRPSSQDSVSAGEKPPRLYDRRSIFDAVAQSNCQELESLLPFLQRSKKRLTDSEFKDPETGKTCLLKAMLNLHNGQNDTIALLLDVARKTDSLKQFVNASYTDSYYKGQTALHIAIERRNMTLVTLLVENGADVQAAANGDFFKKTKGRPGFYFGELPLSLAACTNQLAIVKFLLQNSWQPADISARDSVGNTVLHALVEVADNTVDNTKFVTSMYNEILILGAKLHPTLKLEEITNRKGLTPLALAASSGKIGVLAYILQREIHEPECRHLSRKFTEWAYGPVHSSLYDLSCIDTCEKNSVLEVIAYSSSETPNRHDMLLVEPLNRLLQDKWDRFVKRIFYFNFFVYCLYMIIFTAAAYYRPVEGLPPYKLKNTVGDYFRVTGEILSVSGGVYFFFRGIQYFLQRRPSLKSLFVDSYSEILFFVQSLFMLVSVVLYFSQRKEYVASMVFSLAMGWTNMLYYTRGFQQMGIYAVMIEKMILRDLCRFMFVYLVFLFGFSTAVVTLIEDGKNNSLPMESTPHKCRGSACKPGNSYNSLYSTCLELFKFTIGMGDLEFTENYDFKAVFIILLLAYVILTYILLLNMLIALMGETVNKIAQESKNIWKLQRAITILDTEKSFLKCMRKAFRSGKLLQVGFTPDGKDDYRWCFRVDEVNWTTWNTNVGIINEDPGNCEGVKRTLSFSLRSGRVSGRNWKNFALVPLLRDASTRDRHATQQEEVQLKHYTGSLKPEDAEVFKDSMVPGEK", "experiment": "[Ca2+]i recordings (Fura-2), TRPV1:V1 in HEK 293 cells", "format": "cell-based", "procedure": "Based on the findings described above, we wondered whether AC1903—which is typically used as a TRPC5 inhibitor at concentrations of 30–100 μM in cellular assays ([29], [56])—might have limited selectivity for TRPC5 channels and whether its effect on intracellular G418 levels and PTC readthrough might be the consequence of inhibition of other or multiple targets. All well-characterized TRPC channel inhibitors reported to date modulate multiple TRP(C) channels ([34], [35], [36]). […] Because limited data for the selectivity of AC1903 are available in the public domain, we decided to profile AC1903 against a selection of calcium-permeable cation channels by intracellular calcium ([Ca^2+]i) recordings using well-characterized cell lines and TRP channel activators ([46], [57], [58]), and the Ca^2+ indicator Fura-2. In these assays, cells (HEK 293, HEK T-REx, or CHO) overexpressing the relevant ion channel protein and loaded with Fura-2 AM (a cell-permeable precursor of Fura-2) were preincubated with various concentrations of AC1903 or vehicle (DMSO) for 30 min. Then, changes in ratiometric fluorescence (from background) were recorded upon addition of the respective ion channel activator.\nHEK T-REx cells expressing tetracycline-inducible TRPC4, TRPC5, TRPC5–C1,TRPC4–C1, and hPiezo1 have been described previously ([46], [57], [59], [78]). Cloning of TRPC3 has been described previously ([79]). To create cells stably expressing tetracycline-inducible TRPC3, HEK T-REx cells were transfected with pcDNA4/TO/hTRPC3 using jetPRIME transfection reagent (VWR) according to manufacturer’s instructions. After 48 h cells were put under antibiotic selection using 400 μg/ml zeocin and 10 μg/ml Blasticidin S (Invivogen)). Medium changes were carried out every 2 to 3 days to remove dead cells. […]"}},
  "note": "Entries after “also recorded” stand apart in the source; their conditions may differ.",
  "data": [
    {"smiles": "c1ccc(Cn2c(NCc3ccco3)nc3ccccc32)cc1", "note": "[AC1903]", "values": [
      {"measurement": "IC50", "setting": "TRPC4 channels", "value": 600, "unit": "nM"},
      {"measurement": "effect on capsaicin-activated TRPV1", "setting": "TRPV1:V1; AC1903 100 μM", "value": "small effects"},
      {"measurement": "inhibition of capsaicin-activated TRPV1", "setting": "TRPV1:V1; AC1903 up to 30 μM", "value": "does not affect; also recorded: did not inhibit"},
      {"measurement": "IC50", "setting": "TRPV1:V1; HEK 293, activator capsaicin (500 nM)", "value": "> 50000", "unit": "nM"}
    ]}
  ]
}
